In this experiment the test system is HCV replication. Description: Replicon Assay (Huh-lucubineo-ET cells, luciferase readout). The note with it: Hepatitis C virus; ET (Huh-lucubineo-ET) HCV replicon cell line; luciferase activity 48-72 hours after compound addition; 6 dilutions. The experiment is classed as cell-based. The gist of the method:
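Huh-lucubineo-ET cells stably carrying a firefly luciferase-ubiquitin-neo/NS3-5B ET replicon (adaptive mutations E1202G, T1280I, K1846T) were plated 24 h before compound, then treated at 5 or 50 μM or six 3-fold dilutions. Luciferase read 48-72 h later; % inhibition vs no-compound control, EC50/TC50 from Hill-equation fit.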
`CCCOc1ccc(-c2ccc(Cn3cc4nc(-c5cccc(F)c5F)nc-4cn3)nc2)c(C(F)(F)F)c1` [Compound 296, 2-(2,3-Difluoro-phenyl)-5-[5-(4-propoxy-2-trifluoromethyl-phenyl)-pyridin-2-ylmethyl]-5H-imidazo[4,5-d]pyridazine] returned a concentration giving a half-maximal response (EC50) of 23 nM.

Compound `O=[N+]([O-])c1cc(C(F)(F)F)ccc1-c1ccc(Cn2cc3nc(-c4cccc(F)c4F)nc-3cn2)cn1` [Compound 286, 2-(2,3-Difluoro-phenyl)-5-[6-(2-nitro-4-trifluoromethyl-phenyl)-pyridin-3-ylmethyl]-5H-imidazo[4,5-d]pyridazine] came in with a concentration giving a half-maximal response (EC50) of 59 nM.

Turning to `Fc1cccc(-c2nc3cnn(Cc4ccc(Oc5ccc(C(F)(F)F)cc5C(F)(F)F)cc4)cc-3n2)c1F` [Compound 343, 5-[4-(2,4-Bis-trifluoromethyl-phenoxy)-benzyl]-2-(2,3-difluoro-phenyl)-5H-imidazo[4,5-d]pyridazine], the EC50 came to 26900 nM.

In turn, `CNc1cccc(-c2nc3cnn(Cc4ccc(-c5ccc(C(F)(F)F)cc5C(F)(F)F)nc4)cc-3n2)c1F` [Compound 339, (3-{5-[6-(2,4-Bis-trifluoromethyl-phenyl)-pyridin-3-ylmethyl]-5H-imidazo[4,5-d]pyridazin-2-yl}-2-fluoro-phenyl)-methyl-amine] had an EC50 of 14300 nM.

Consider `Cc1nc(-c2ccc(Cn3cc4nc(-c5cccc(F)c5F)nc-4cn3)cc2)no1` [Compound 277, 2-(2,3-Difluoro-phenyl)-5-[4-(5-methyl-[1,2,4]oxadiazol-3-yl)-benzyl]-5H-imidazo[4,5-d]pyridazine], for which the EC50 was at least 50000 nM.

`O=C(Nc1ccccc1)c1ccc(Cn2cc3nc(-c4cccc(F)c4F)nc-3cn2)cc1` [Compound 273, 4-[2-(2,3-Difluoro-phenyl)-imidazo[4,5-d]pyridazin-5-ylmethyl]-N-phenyl-benzamide] displayed an EC50 of at least 50000 nM.

The compound `Oc1ccc(-c2ccc(Cn3cc4nc(-c5cccc(F)c5F)nc-4cn3)nn2)c(C(F)(F)F)c1` [Compound 350, 4-{6-[2-(2,3-Difluoro-phenyl)-imidazo[4,5-d]pyridazin-5-ylmethyl]-pyridazin-3-yl}-3-trifluoromethyl-phenol] registered an EC50 of at least 50000 nM.

`Fc1cccc(-c2nc3cnn(Cc4ccc(-c5ccccc5)cc4)cc-3n2)c1F` [Compound 282, 5-Biphenyl-4-ylmethyl-2-(2,3-difluoro-phenyl)-5H-imidazo[4,5-d]pyridazine] displayed an EC50 of 690 nM.

In the case of `Nc1nc(-c2ccc(C(F)(F)F)cc2C(F)(F)F)ccc1Cn1cc2nc(-c3cccc(F)c3F)nc-2cn1` [Compound 360, 6-(2,4-Bis-trifluoromethyl-phenyl)-3-[2-(2,3-difluoro-phenyl)-imidazo[4,5-d]pyridazin-5-ylmethyl]-pyridin-2-ylamine], the EC50 was 11 nM.

For the compound `Fc1cccc(-c2nc3cnn(Cc4ccc(Cl)nn4)cc-3n2)c1F` [Compound 307, 5-(6-Chloro-pyridazin-3-ylmethyl)-2-(2,3-difluoro-phenyl)-5H-imidazo[4,5-d]pyridazine], the EC50 is at least 50000 nM.

Consider `Fc1ccc(COc2ccc(Cn3cc4nc(-c5cccc(F)c5F)nc-4cn3)cc2)cc1` [Compound 297, 2-(2,3-Difluoro-phenyl)-5-[4-(4-fluoro-benzyloxy)-benzyl]-5H-imidazo[4,5-d]pyridazine], for which the EC50 came out at 5740 nM.

Take `CC(C)Cc1ccc(-c2ccc(Cn3cc4nc(-c5cccc(F)c5F)nc-4cn3)nn2)c(C(F)(F)F)c1` [Compound 332, 2-(2,3-Difluoro-phenyl)-5-[6-(4-isobutyl-2-trifluoromethyl-phenyl)-pyridazin-3-ylmethyl]-5H-imidazo[4,5-d]pyridazine]: the EC50 came out at 19 nM.

Turning to `Fc1cccc(-c2nc3cnn(Cc4ccc(Oc5ccccn5)cc4)cc-3n2)c1F` [Compound 314, 2-(2,3-Difluoro-phenyl)-5-[4-(pyridin-2-yloxy)-benzyl]-5H-imidazo[4,5-d]pyridazine], the EC50 is at least 50000 nM.

The compound `CCCOc1ccc(-c2ccc(Cn3cc4nc(-c5cccc(F)c5F)nc-4cn3)nc2)cc1` [Compound 247, 2-(2,3-Difluoro-phenyl)-5-[5-(4-propoxy-phenyl)-pyridin-2-ylmethyl]-5H-imidazo[4,5-d]pyridazine] returned an EC50 of 5080 nM.

Take `CCCOc1ccc(-c2ccc(Cn3cc4nc(-c5cccc(F)c5F)nc-4cn3)nn2)c(C(F)(F)F)c1` [Compound 226, 2-(2,3-Difluoro-phenyl)-5-[6-(4-propoxy-2-trifluoromethyl-phenyl)-pyridazin-3-ylmethyl]-5H-imidazo[4,5-d]pyridazine]: the EC50 was determined as 4 nM.

The compound `Fc1cccc(-c2nc3cnn(Cc4ccc(-c5ccc(Br)c(C(F)(F)F)c5)nc4)cc-3n2)c1F` [Compound 298, 5-[6-(4-Bromo-3-trifluoromethyl-phenyl)-pyridin-3-ylmethyl]-2-(2,3-difluorophenyl)-5H-imidazo[4,5-d]pyridazine] displayed an EC50 of at least 50000 nM.

`COc1ccc(-c2ccc(Cn3cc4nc(-c5cccc(F)c5F)nc-4cn3)nc2[N+](=O)[O-])c(C(F)(F)F)c1` [Compound 310, 2-(2,3-Difluoro-phenyl)-5-[5-(4-methoxy-2-trifluoromethyl-phenyl)-6-nitro-pyridin-2-ylmethyl]-5H-imidazo[4,5-d]pyridazine] gave an EC50 of 762 nM.

Compound `Fc1cccc(-c2nc3cnn(Cc4ccc(N5CCOCC5)cc4)cc-3n2)c1F` [Compound 303, 2-(2,3-Difluoro-phenyl)-5-(4-morpholin-4-yl-benzyl)-5H-imidazo[4,5-d]pyridazine] had an EC50 of 8530 nM.

`CCCOc1ccc(-c2ccc(Cn3cc4nc(-c5ccccc5F)nc-4cn3)nn2)c(C(F)(F)F)c1` [Compound 316, 2-(2-Fluoro-phenyl)-5-[6-(4-propoxy-2-trifluoromethyl-phenyl)-pyridazin-3-ylmethyl]-5H-imidazo[4,5-d]pyridazine] showed an EC50 of 32 nM.

Regarding `COc1ccc(-c2ccc(Cn3cc4nc(-c5cccc(F)c5F)nc-4cn3)nc2)c(C(F)(F)F)c1` [Compound 243, 2-(2,3-Difluoro-phenyl)-5-[5-(4-methoxy-2-trifluoromethyl-phenyl)-pyridin-2-ylmethyl]-5H-imidazo[4,5-d]pyridazine], it took 17 nM to reach a half-maximal effect (EC50).

For `Cc1noc(-c2ccc(Cn3cc4nc(-c5cccc(F)c5F)nc-4cn3)cc2)n1` [Compound 313, 2-(2,3-Difluoro-phenyl)-5-[4-(3-methyl-[1,2,4]oxadiazol-5-yl)-benzyl]-5H-imidazo[4,5-d]pyridazine], the EC50 was at least 50000 nM.

With `Fc1cccc(-c2nc3cnn(Cc4ccc(-c5ccc(C(F)(F)F)cc5)nn4)cc-3n2)c1F` [Compound 116, 2-(2,3-Difluoro-phenyl)-5-[6-(4-trifluoromethyl-phenyl)-pyridazin-3-ylmethyl]-5H-imidazo[4,5-d]pyridazine], the EC50 is at least 50000 nM.

`CCOC(=O)CCc1ccc(-c2ccc(Cn3cc4nc(-c5cccc(F)c5F)nc-4cn3)nn2)cc1` [Compound 217, 3-(4-{6-[2-(2,3-Difluoro-phenyl)-imidazo[4,5-d]pyridazin-5-ylmethyl]-pyridazin-3-yl}-phenyl)-propionic acid ethyl ester] registered an EC50 of 52000 nM.

`Fc1cccc(-c2nc3cnn(Cc4cccc(Oc5ccccc5)c4)cc-3n2)c1F` [Compound 279, 2-(2,3-Difluoro-phenyl)-5-(3-phenoxy-benzyl)-5H-imidazo[4,5-d]pyridazine]: a half-maximal effect (EC50) was put at 20000 nM.

Turning to `N#CCOc1ccc(-c2ccc(Cn3cc4nc(-c5cccc(F)c5F)nc-4cn3)nn2)c(C(F)(F)F)c1` [Compound 325, (4-{6-[2-(2,3-Difluoro-phenyl)-imidazo[4,5-d]pyridazin-5-ylmethyl]-pyridazin-3-yl}-3-trifluoromethyl-phenoxy)-acetonitrile], the EC50 is 107 nM.

`COc1ccc(-c2ccc(Cn3cc4nc(-c5cccc(F)c5F)nc-4cn3)nn2)c(C(F)(F)F)c1` [Compound 238, 2-(2,3-Difluoro-phenyl)-5-[6-(4-methoxy-2-trifluoromethyl-phenyl)-pyridazin-3-ylmethyl]-5H-imidazo[4,5-d]pyridazine] displayed an EC50 of 6 nM.

In the case of `N#Cc1ccccc1-c1ccc(Cn2cc3nc(-c4cccc(F)c4F)nc-3cn2)cc1` [Compound 264, 4′-[2-(2,3-Difluoro-phenyl)-imidazo[4,5-d]pyridazin-5-ylmethyl]-biphenyl-2-carbonitrile], the EC50 is 892 nM.

`Cc1ccc(-c2ccc(Cn3cc4nc(-c5cccc(F)c5F)nc-4cn3)c(N)n2)c(C(F)(F)F)c1` [Compound 240, 3-[2-(2,3-Difluoro-phenyl)-imidazo[4,5-d]pyridazin-5-ylmethyl]-6-(4-methyl-2-trifluoromethyl-phenyl)-pyridin-2-ylamine] returned an EC50 of 44 nM.

`CC(c1ccc(-c2ccc(C(F)(F)F)cc2C(F)(F)F)cn1)n1cc2nc(-c3cccc(F)c3F)nc-2cn1` (centres unmarked) [Compound 305, 5-{1-[5-(2,4-Bis-trifluoromethyl-phenyl)-pyridin-2-yl]-ethyl}-2-(2,3-difluoro-phenyl)-5H-imidazo[4,5-d]pyridazine] had an EC50 of 278 nM.

`Fc1cccc(-c2nc3cnn(Cc4ccc(-c5ccsc5)cc4)cc-3n2)c1F` [Compound 272, 2-(2,3-Difluoro-phenyl)-5-(4-thiophen-3-yl-benzyl)-5H-imidazo[4,5-d]pyridazine]: the EC50 came to 18700 nM.

On to `COc1ccc(-c2ccc(Cn3cc4nc(-c5cccc(F)c5F)nc-4cn3)cc2[N+](=O)[O-])c(C(F)(F)F)c1` [Compound 258, 2-(2,3-Difluoro-phenyl)-5-(4′-methoxy-2-nitro-2′-trifluoromethyl-biphenyl-4-ylmethyl)-5H-imidazo[4,5-d]pyridazine], for which the EC50 was found to be 228 nM.

On to `Fc1cccc(-c2nc3cnn(Cc4ccc(OCc5ccccc5)cc4)cc-3n2)c1F` [Compound 280, 5-(4-Benzyloxy-benzyl)-2-(2,3-difluoro-phenyl)-5H-imidazo[4,5-d]pyridazine], for which the EC50 was at least 50000 nM.

Usually EC50 stands for the concentration that produces a half-maximal response.

For the origin of these results see US20090226398A1, “ANTI-VIRAL COMPOUNDS, COMPOSITIONS, AND METHODS OF USE” (Genelabs Technologies, Inc., priority 2008, published 2009).
